From publication PMC4645160, “Targeting kinases with anilinopyrimidines: discovery of N-phenyl-N’-[4-(pyrimidin-4-ylamino)phenyl]urea derivatives as selective inhibitors of class III receptor tyrosine kinase subfamily” (Scientific Reports, 2015)

Legend:
panel of 48 kinases = experiment: KinomeScan primary screening (POC) at 10 μM; format: binding, human; conditions: POC values
From the text: Synthesized compounds were screened against a panel of 48 kinases selected within the ScanEDGE subset of DiscoverX (http://www.discoverx.com/services/drug-discovery-development-services/kinase-profiling/kinomescan/scanedge). The ScanEDGE includes 97 kinases and is an economical approach to assess compounds selectivity throughout the human kinome. All the wt-TKs along with some relevant mutants of Abl1 (T315I) and of EGFR (L858R and L858R/T790M) were chosen. The remaining 18 targets (3 Tyrosine Kinases-Like, TKLs; 15 Serine-Threonine Kinases, STKs) were selected among the remaining kinases in the ScanEDGE subset on the basis of their well established role in cancer (see Fig. S2 for a graphical representation of the selected kinases with reference to the kinome tree. Some references highlighting the role of each kinase in cancer are also reported in Table S3).
The compounds were evaluated using the KinomeScan™ platform (http://www.discoverx.com/services/drug-discovery-development-services/kinase-profiling/kinomescan), that measures the ability of the test compound to disrupt the complex between a high affinity ATP-mimic probe immobilized on a solid support and the kinase of interest. The KinomeScan is a very helpful technology for the fast and reliable screening of a number of compounds against a wide and customizable panel of kinases. Besides, it is not based on the use of hazardous radioactive ^32P-ATP and has a very low rate of false positive (<1%)[44]. The screening platform outputs a “Percent of Control” (POC) value, statistically correlated to the dissociation constant (Kd) value (http://www.discoverx.com/tools-resources/leadhunter-study-reports-data-analysis), for each pair of kinase/ligand. The POC is calculated as reported in equation (1):
Where: test compound signal = amount of kinase still binding the probe after treatment with test compound; negative control signal = amount of kinase still binding the probe after treatment with DMSO (100% control); positive control signal = amount of kinase still binding the probe after treatment with control compound (0% control).
The compounds were tested at high concentration (10 μM), in order to highlight not only the main target but also the off-targets. The results of the preliminary screening are reported as heat map (Fig. 4; see also Table S4 for all the measured values), in which the compounds are grouped on the basis of the 6 or 5 substituent at the pyrimidine ring.

BxPC3 cells = experiment: MTT cytotoxicity assay, BxPC3 pancreatic adenocarcinoma cells; format: cell-based, human; conditions: for IC50: Homo sapiens, BXPC-3, MTT test, 72 h of drug treatment, read-out: BxPC3 IC50 (μM) ± SD; for Potency relative to SU (BxPC3): ratio between IC50 of sunitinib and IC50 of tested compound
Protocol: (§1) Compounds active against at least one kinase among EGFR and class III RTKs were evaluated for their cytotoxic properties against two different human cancer cell lines, namely non small cells A549 lung cancer cells (sensitive to EGFR inhibitors)[46] and pancreatic BxPC3 adenocarcinoma (sensitive to both PDGFRβ and EGFR inhibitors)[47][48] cells. […] The results, expressed as IC50 values (μM) calculated from the dose-survival curves obtained after 72 h of drug treatment from the MTT test, are reported in Table 1.
(§2) All compounds, except derivative 27, were dissolved in DMSO just before the experiment, and a calculated amount of drug solution was added to the cell growth medium to a final solvent concentration of 0.5%, which had no discernible effect on cell killing. Compound 27 was dissolved in a 0.9% NaCl solution just before the experiment.
(§3) Human lung (A549), breast (MCF-7), pancreas (BxPC3), and colon (LoVo) carcinoma cell lines along with melanoma (A375) were obtained from American Type Culture Collection (ATCC, Rockville, MD). Human non-tumor embryonic kidney HEK293 cells were obtained from European Collection of Cell Cultures (ECACC, Salisbury, UK). Human cervical carcinoma A431cells were kindly provided by Prof. F. Zunino (Division of Experimental Oncology B, Istituto Nazionale dei Tumori, Milan, Italy). Human ovarian cancer 2008 cells were kindly provided by Prof. G. Marverti (Dept. of Biomedical Science of Modena University, Italy). Cell lines were maintained in the logarithmic phase at 37 °C in a 5% carbon dioxide atmosphere using the following culture media containing 10% fetal calf serum (Euroclone, Milan, Italy), antibiotics (50 units ∙ mL^−1 penicillin and 50 μg ∙ mL^−1 streptomycin) and 2 mM l-glutamine: i) RPMI-1640 medium (Euroclone) for MCF-7, A431, BxPC3 and 2008 cells; ii) F-12 HAM’S (Sigma Chemical Co.) for A549 and LoVo cells; iii) D-MEM medium (Euroclone) for HEK293 cells.
(§4) The growth inhibitory effect towards human cell lines was evaluated by means of MTT (tetrazolium salt reduction) assay. Briefly, 3–8 ∙ 10^3 cells/well, dependent upon the growth characteristics of the cell line, were seeded in 96-well microplates in growth medium (100 μL) and then incubated at 37 °C in a 5% carbon dioxide atmosphere. After 24 h, the medium was removed and replaced with a fresh one containing the test compound at the appropriate concentration. Triplicate cultures were established for each treatment. After 72 h, each well was treated with 10 μL of a 5 mg ∙ mL-1 MTT (3-(4,5-dimethylthiazol-2-yl)-2,5-diphenyltetrazolium bromide) saline solution, and after 5 h additional incubation, 100 μL of a sodium dodecylsulfate (SDS) solution in HCl 0.01 M were added. After overnight incubation, the inhibition of cell growth induced by the tested complexes was detected by measuring the absorbance of each well at 570 nm using a Bio-Rad 680 microplate reader (Bio-Rad, Hercules, CA). Mean absorbance for each drug dose was expressed as a percentage of the control untreated well absorbance and plotted vs drug concentration.

A549 cells = experiment: MTT cytotoxicity assay, A549 lung cancer cells; format: cell-based, human; conditions: for IC50: Homo sapiens, A549, 72 h, MTT test, 72 h of drug treatment, read-out: A549 IC50 (μM) ± SD; for Potency relative to SU (A549): ratio between IC50 of sunitinib and IC50 of tested compound
Protocol: as §1, §2, §3, §4

A375 cells = experiment: MTT cytotoxicity assay, A375 melanoma cells; format: cell-based; conditions: Homo sapiens, A-375; MTT test, 72 h; read-out: A375 IC50 (μM) ± SD
Protocol: (§5) The cytotoxic profile of 19 and 27 was assessed on a wider panel of human tumor cell lines including also examples of breast (MCF-7), cervical (A431), colorectal (HCT-15), and ovarian (2008) cancers as well as melanoma (A375), besides lung (A549) and pancreatic (BxPC3) cancer cells. IC50 values, calculated from the dose-survival curves obtained after 72 h of drug treatment from the MTT test, are reported in Table 2. […] Both compounds were endowed with a cytotoxic potency higher than that of SU, eliciting IC50 values in the low micromolar range.
as §2
(§6) Human lung (A549), breast (MCF-7), pancreas (BxPC3), and colon (LoVo) carcinoma cell lines along with melanoma (A375) were obtained from American Type Culture Collection (ATCC, Rockville, MD). Human non-tumor embryonic kidney HEK293 cells were obtained from European Collection of Cell Cultures (ECACC, Salisbury, UK). Human cervical carcinoma A431cells were kindly provided by Prof. F. Zunino (Division of Experimental Oncology B, Istituto Nazionale dei Tumori, Milan, Italy). Human ovarian cancer 2008 cells were kindly provided by Prof. G. Marverti (Dept. of Biomedical Science of Modena University, Italy). […]
(§7) The growth inhibitory effect towards human cell lines was evaluated by means of MTT (tetrazolium salt reduction) assay. […] After overnight incubation, the inhibition of cell growth induced by the tested complexes was detected by measuring the absorbance of each well at 570 nm using a Bio-Rad 680 microplate reader (Bio-Rad, Hercules, CA). Mean absorbance for each drug dose was expressed as a percentage of the control untreated well absorbance and plotted vs drug concentration.

LoVo cells = experiment: MTT cytotoxicity assay, LoVo colon carcinoma cells; format: cell-based; conditions: Homo sapiens, MTT test, 72 h, read-out: LoVo IC50 (μM) ± SD
Protocol: as §5, §2, §6, §7

2008 cells = experiment: MTT cytotoxicity assay, 2008 ovarian cancer cells; format: cell-based; conditions: Homo sapiens; MTT test, 72 h; read-out: 2008 IC50 (μM) ± SD
Protocol: as §5, §2, §6, §7

MCF-7 cells = experiment: MTT cytotoxicity assay, MCF-7 breast cancer cells; format: cell-based; conditions: Homo sapiens, MCF7; MTT test, 72 h; read-out: MCF-7 IC50 (μM) ± SD
Protocol: as §5, §2, §6, §7

HEK293 cells = experiment: MTT cytotoxicity assay, non-tumor HEK293 cells; format: cell-based, human; conditions: Homo sapiens, HEK293; MTT test, 72 h, non-tumor cells; read-out: HEK293 IC50 (μM) ± SD
Protocol: F. Zunino (Division of Experimental Oncology B, Istituto Nazionale dei Tumori, Milan, Italy).
The growth inhibitory effect towards human cell lines was evaluated by means of MTT (tetrazolium salt reduction) assay. […] Triplicate cultures were established for each treatment.

Structure (SMILES) | melting point [°C] | Selectivity profile (kinases targeted) in primary screening (panel of 48 kinases) | IC50 (BxPC3 cells) [µM] | Potency relative to SU (BxPC3) (BxPC3 cells) | IC50 (A549 cells) [µM] | Potency relative to SU (A549) (A549 cells) | IC50 (A375 cells) [µM] | IC50 (LoVo cells) [µM] | IC50 (2008 cells) [µM] | IC50 (MCF-7 cells) [µM] | IC50 (HEK293 cells) [µM]
Cc1cccc(Nc2cc(Nc3ccccc3)ncn2)c1 [Compound 1] | 254 | EGFR selective | 6.43 ± 1.78 | 0.79 | 8.94 ± 2.18 | 0.70 |  |  |  |  | 
c1ccc(Nc2cc(Nc3cccc(-c4ccccc4)c3)ncn2)cc1 [Compound 2] | 267 |  | 17.9 ± 2.46 | 0.28 | 26.5 ± 3.85 | 0.23 |  |  |  |  | 
Oc1cccc(Nc2cc(Nc3ccccc3)ncn2)c1 [Compound 3] | 253 |  | 8.19 ± 2.18 | 0.62 | 28.2 ± 5.46 | 0.22 |  |  |  |  | 
Cc1ccc(Nc2cc(Nc3ccccc3)ncn2)cc1 [Compound 4] | 265 | EGFR selective | 23.2 ± 4.29 | 0.22 | 14.2 ± 2.75 | 0.44 |  |  |  |  | 
Oc1ccc(Nc2cc(Nc3ccccc3)ncn2)cc1 [Compound 5] | 286 | EGFR; class III RTK; AXL | 6.51 ± 1.07 | 0.78 | 16.3 ± 4.24 | 0.38 |  |  |  |  | 
Nc1ccc(Nc2cc(Nc3ccccc3)ncn2)cc1 [Compound 6] |  |  | 16.1 ± 4.85 | 0.31 | 34 ± 4.98 | 0.18 |  |  |  |  | 
Cc1cccc(Nc2cc(Nc3cccc(C)c3)ncn2)c1 [Compound 8] |  |  | > 50 | <0.10 | > 50 | <0.12 |  |  |  |  | 
Brc1cccc(Nc2cc(Nc3cccc(Br)c3)ncn2)c1 [Compound 9] | 243 |  | > 50 | <0.10 | > 50 | <0.12 |  |  |  |  | 
Oc1ccc(Nc2cc(Nc3ccc(O)cc3)ncn2)cc1 [Compound 12] |  | EGFR; calss III RTK; AXL; TRKA; JAK3 | > 50 | <0.10 | > 50 | <0.12 |  |  |  |  | 
Cc1cccc(Nc2cc(-c3ccccc3)ncn2)c1 [Compound 13] | 272 | Inactive |  |  |  |  |  |  |  |  | 
Cc1cccc(Nc2ncncc2-c2ccccc2)c1 [Compound 20] |  | Inactive |  |  |  |  |  |  |  |  | 
Oc1ccc(Nc2ncncc2-c2ccccc2)cc1 [Compound 24] | 118 |  | 16.4 ± 4.22 | 0.31 | 12.1 ± 1.99 | 0.51 |  |  |  |  | 
Nc1ccc(Nc2ncncc2-c2ccccc2)cc1 [Compound 25] |  |  | 27.9 ± 5.28 | 0.18 | 26.1 ± 4.55 | 0.24 |  |  |  |  | 
O=C(Nc1ccccc1)Nc1ccc(Nc2ncncc2-c2ccccc2)cc1 [Compound 26] |  | class III RTK | 30.9 ± 4.18 | 0.16 | 28.9 ± 5.86 | 0.21 |  |  |  |  | 
CCN(CC)CCNC(=O)c1c(C)[nH]c(/C=C2\C(=O)Nc3ccc(F)cc32)c1C [SU, sunitinib, reference compound] |  |  | 5.05 ± 1.34 |  | 6.22 ± 1.84 |  | 8.25 ± 2.88 | 8.18 ± 2.67 | 3.52 ± 1.22 | 2.58 ± 0.85 | 12.2 ± 2.83
